The source of these data is a melting point compilation (Tetko et al.; mined from patent text by program, amines drawn as free bases though some values may be those of a salt).

`ClCc1ccc(C#Cc2ccccc2)cc1`: the melting point lay within 61.5 to 63.5 °C.
Take `CCCCSc1cn(C)cc(-c2cccc(C(F)(F)F)c2)c1=O`: the melting point lay within 109 to 110 °C.
`CN(C)C1CC=C(c2c[nH]c3ccc(NC(=N)c4cccs4)cc23)CC1` (centres undefined): the melting point is 113 to 115 °C.
As to `Cc1c(C(=O)Nc2ccc(N3CCN(C4CCOCC4)CC3)c(C#N)c2)cnn1-c1ccc(Cl)cc1`, the melting point is 276 °C.
The compound `CC1Cc2c(NN)c(Cl)cc(Cl)c2O1` (centres undefined) had a melting point of 59 to 64 °C.
`OCc1ccc2ccn(C3CCN(CCc4ccccc4F)CC3)c2c1` returned a melting point of 117 to 118 °C.
The compound `Cn1cc(C(=O)O)cc1Cl` returned a melting point of 201 to 203 °C.
Regarding `CCN1CCC(c2n[nH]c3cc(F)ccc23)CC1`, the melting point was 175 to 178 °C.
Take `CNc1c(S(=O)(=O)C(F)(F)F)c(C#N)nn1-c1c(Cl)cc(C(F)(F)F)cc1Cl`: the melting point turned out to be 227 °C.
As for `O=C(OC(=O)c1ccc([N+](=O)[O-])cc1S(=O)(=O)O)c1ccc([N+](=O)[O-])cc1S(=O)(=O)O`, the melting point was in the range of 110 to 116 °C.
`COc1cc(C#N)ccc1-c1cc2cc(Cl)c(Cl)cc2[nH]1` showed a melting point of 241 to 244 °C.
In turn, `NS(=O)(=O)CS(=O)(=O)c1ccc(S(=O)(=O)CCCO)cc1` returned a melting point of 200 °C.
`Cn1ncnc1COc1nc2c(-c3c(F)cccc3F)nncn2c1-c1ccccc1` returned a melting point of 190 °C.
`CCN(CCO)Cc1cc(Nc2nc(Nc3cc4c(cc3OC)CCN(CC(=O)N(C)C)CC4)ncc2Cl)ccc1F` came in with a melting point of 71 to 75 °C.
The compound `O=C(O)c1nc(C(Cl)(Cl)Cl)n(-c2cccc(C(F)(F)F)c2)n1` showed a melting point of 126 °C.
For the compound `CC1(O)CC(=O)OC(C=Cc2ccccc2)C1(C)Br` (centres undefined), the melting point lay in the range of 121 to 123 °C.
`Cc1ccccc1Sc1ccc2c(c1)CC[C@H]1NC(=O)CC[C@]21C` returned a melting point of 192 °C.
`CC(C)(C)OC(=O)NC(C)(C)c1ccc(-c2ccc3nn(C4CCCCO4)cc3c2-c2cc[nH]n2)cc1` (centres undefined) yielded a melting point of 99 to 105 °C.
For `Cc1nc(-c2cccc(C(F)(F)F)c2)ccc1C=O` the value was 61 to 63 °C; for `COc1ccc(CN2CCC(c3cn(Cc4ccoc4)c4ccccc34)CC2)cc1C(=O)O`, 253 to 255 °C.
Compound `CCCCCCCCCCCCCCC1COC2(CC(c3ccccc3)N(O)C(c3ccccc3)C2)O1` (centres undefined) displayed a melting point of 98 to 100 °C.
For `OC1CSC(Oc2ccccc2-c2cccnc2)C(O)C1O` (centres undefined) the value was 195 °C.
As for `O=c1c2cc(F)c(N3CCCC3)nc2n(-c2ccc(F)cc2)c(=O)n1O`, the figure is 172 to 174 °C; as for `Cc1ccccc1Nc1nc2ccc(CC(=O)Nc3ccc(C4(CC(=O)O)CCCC4)cc3)cc2o1`, 123 to 126 °C.
The compound `Cc1oc(Cl)cc1C(=O)O` yielded a melting point of 126 to 127 °C.
`CC(C)(F)c1cnn2c(-c3ccc(F)c(-c4ccc(F)cc4C#N)c3F)cnc2n1` registered a melting point of 166 to 169 °C.
Regarding `COc1ccc2ccccc2c1C1CCN(CCCCNC(=O)c2ccc(-c3ccc(Cl)cc3)cc2)CC1`, the melting point was 149 °C.
`O=C(NCCCCOc1ccc(-n2ccnc2)cc1)c1ccccc1` gave a melting point of 117 to 118 °C.
On to `NC[C@H](O)c1ccc2nnnn2c1`, for which the melting point fell in the range of 153 to 154 °C.
Compound `NC(=O)NC1CCCCCC1` had a melting point of 203 to 204 °C.
Regarding `CC(C)Cc1cnc(N)c([N+](=O)[O-])c1`, the melting point was in the range of 147 to 149 °C.
For `Nc1nc2c(c(Nc3cccc(Br)c3)n1)-c1ccccc1C2` the value was 233 to 236 °C.
The compound `CCOC(=O)c1nn2c(-c3ccc(OC)cc3)nnc2c2ccccc12` returned a melting point of 180 to 182 °C.
As for `COc1ccc(-c2ncsc2-c2ccc(OC)cc2)cc1`, the melting point lay in the range of 98 to 99 °C.
For `CCCCNC(=O)Nc1ccc(OCC)cc1C(=O)NCC1CCN(C(c2ccccc2)c2ccccc2)CC1` the value was 191 to 193 °C; for `COC(=O)c1cc(Br)ccc1Cl`, 43 to 44 °C; for `CCCCCCCCCCCCC1=C(O)C(=O)NC1=O`, 108 to 109 °C.
The compound `O=C1OC(CO)CN2C1=Cc1ccsc1S2(=O)=O` (centres undefined) yielded a melting point of 210 to 212 °C.
`O=C(O)CN(CF)C(=O)c1ccccc1` yielded a melting point of 233 to 235 °C.
In turn, `O=C(CCC1=C(n2nc(-c3c(-c4ccccc4)nn4ccccc34)ccc2=O)CCCC1)OCc1ccccc1` came in with a melting point of 111 to 113 °C.
`O=C1CCCN1C(=O)Oc1cccc(Cl)c1`: the melting point fell in the range of 88 to 89 °C.
For `CCOC(=O)c1sc(Nc2ccccc2)c2c1CCc1cn[nH]c1-2`, the melting point was in the range of 202 to 203 °C.
For `CCSCCOC(=O)C1=C(C)NC(C)=C(C(=O)OCC=Cc2ccccc2)C1c1cccc([N+](=O)[O-])c1` (centres undefined) the value was 142 to 144 °C; for `CCCc1nc2c(N)nc3cc(OCc4cccc(Cl)c4)ccc3c2n1CC(C)C`, 182 to 183 °C.
For `N#Cc1c(N2CCN(C(=O)C3CCCO3)CC2)c2ccccc2n(Cc2ccc(F)cc2)c1=O` (centres undefined) the value was 123 to 135 °C; for `O=C1NC(=O)c2c1c(-c1ccccc1Cl)cc1c2ccn1CCCO`, 225 to 227 °C.
Regarding `N#Cc1cccc(C2SC[C@@H](C(=O)O)N2C(=O)CCCCCC(=O)N2C(c3cccc(C#N)c3)SC[C@H]2C(=O)O)c1` (some centres undefined), the melting point lay within 105 to 112 °C.
`Cc1cc(-c2nnn(C)n2)cc(C)c1OCCCC(N)=O` came in with a melting point of 155 to 156 °C.
In turn, `O=C(Nc1ccc(C(F)(F)F)cc1)N1CCC2Cc3ccccc3C2=N1` (centres undefined) had a melting point of 122 to 124 °C.
For `O=C(O)c1cnn2c(C(F)(F)F)cc(-c3ccc(C(F)(F)F)c(OCC(F)(F)F)c3)nc12` the value was 264 °C; for `CC1(C)C=C(c2cccnc2)c2cc(C#N)ccc2O1`, 98 to 99 °C; for `Nc1ccc(CN2C(=O)[C@H]3CCC[C@H]3N(C(=O)CN3C(=O)c4ccccc4C3=O)c3ccccc32)cc1` (relative stereo), 286 to 289 °C.
Compound `Nc1c([N+](=O)[O-])cnn1-c1c(Cl)cc(C(F)(F)F)c(Cl)c1Cl` had a melting point of 78 to 85 °C.
Consider `COC(=O)c1sc(S)c(Cl)c1O`, for which the melting point is 48 to 49 °C.
Consider `CN(Cc1ccccc1)c1nc(=O)n(C(=O)c2cccs2)cc1F`, for which the melting point lay within 101 to 102 °C.
As for `O=C1c2cccc(Br)c2C(=O)N1CCCn1cncn1`, the figure is 113 to 115 °C; as for `CC(=O)NCC1CN(c2ccc(N3CCC(n4cc(C5(C)CO5)nn4)CC3)c(F)c2)C(=O)O1` (centres undefined), 158 to 160 °C; as for `Cc1nc2c(n1C)CCCC2=O`, 98.1 °C.
Compound `Fc1cc(Br)cc(OCc2ccc3ccccc3c2)c1` returned a melting point of 65 to 67 °C.
For `COc1ccc(C2(O)CC3CCC(C2)N3C)cc1` (centres undefined) the value was 162 °C.
On to `N#Cc1ccc(C2CCCC(=O)N2c2ccccc2)cc1` (centres undefined), for which the melting point is 120 °C.
For the compound `COC(=O)C(NC(=O)Nc1ccc(C=NO)cc1)C(=O)OC`, the melting point was determined as 162 °C.
As to `Cc1oc(-c2ccccc2)nc1CCOc1ccc(CC(C(=O)O)C(=O)O)cc1`, the melting point was 173 to 175 °C.
For `COC(=O)C1=C(O)c2cc(OC)ccc2S(=O)(=O)N1` the value was 183 °C.
